Reference: patent US8431610B2, “Alkanoylamino benzamide aniline HDAC inhibitor compounds” (Gilead Sciences, Inc., priority 2009, dated 2013)

Experiments:
HDAC-1 = HDAC-1 (Homo sapiens, UniProt Q13547); assay: HDAC inhibitory activity assay with HDAC-1 (fluorophore/quencher peptide substrate); format: biochemical; details: enzyme/compound mix incubated at room temperature for 2 hours; reaction about 45 minutes; fluorescence read
Protocol: (§1) HDAC inhibitory activity of the compound of Example 1 was measured by an assay in which HDAC-1 or -3 were used as a target molecule. The test compound was suspended in and titrated in DMSO. It was then spotted into a 384-well test plate. The enzyme, HDAC-1 or -3, was diluted in assay buffer containing 25 mM Tris-HCl (pH 8.0), 137 mM NaCl, 2.7 mM KCl, and 0.01% Tween-20 and added to the pre-spotted compound. The enzyme/compound mix was incubated at room temperature for 2 hours. The peptide substrate containing a fluorophore/quencher pair was diluted in the same assay buffer and added to the compound/enzyme mix initiating the reaction. The reaction incubated at room temperature for about 45 minutes. A concentrated developer solution was diluted in the assay buffer, and added to the reaction. The reaction was incubated at room temperature for about 15 minutes and relative fluorescence was read on an instrument reader.

HDAC-3 = HDAC-3 (Homo sapiens, UniProt O15379); assay: HDAC inhibitory activity assay with HDAC-3 (fluorophore/quencher peptide substrate); format: biochemical; details: enzyme/compound mix incubated at room temperature for 2 hours; reaction about 45 minutes; fluorescence read
Sequence of HDAC-3 (O15379 whole entry, species assumed): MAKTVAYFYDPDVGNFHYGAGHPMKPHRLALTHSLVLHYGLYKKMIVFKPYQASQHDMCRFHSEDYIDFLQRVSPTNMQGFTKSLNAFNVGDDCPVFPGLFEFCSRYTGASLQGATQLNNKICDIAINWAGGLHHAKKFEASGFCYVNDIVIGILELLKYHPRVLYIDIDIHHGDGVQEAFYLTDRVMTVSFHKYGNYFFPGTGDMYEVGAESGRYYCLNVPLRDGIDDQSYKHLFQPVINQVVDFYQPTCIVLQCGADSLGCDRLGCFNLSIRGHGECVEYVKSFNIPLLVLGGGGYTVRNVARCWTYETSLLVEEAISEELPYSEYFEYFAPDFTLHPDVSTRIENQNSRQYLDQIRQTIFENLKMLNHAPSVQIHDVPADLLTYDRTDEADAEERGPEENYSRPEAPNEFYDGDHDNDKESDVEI
Sequence of HDAC-3 (Q9Y618 395-489 partner limits assumed, species assumed): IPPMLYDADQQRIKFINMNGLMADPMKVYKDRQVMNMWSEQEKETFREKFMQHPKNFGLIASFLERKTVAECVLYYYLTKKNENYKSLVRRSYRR
Protocol: as §1

Sequence of HDAC-1 (Q13547 whole entry, species assumed): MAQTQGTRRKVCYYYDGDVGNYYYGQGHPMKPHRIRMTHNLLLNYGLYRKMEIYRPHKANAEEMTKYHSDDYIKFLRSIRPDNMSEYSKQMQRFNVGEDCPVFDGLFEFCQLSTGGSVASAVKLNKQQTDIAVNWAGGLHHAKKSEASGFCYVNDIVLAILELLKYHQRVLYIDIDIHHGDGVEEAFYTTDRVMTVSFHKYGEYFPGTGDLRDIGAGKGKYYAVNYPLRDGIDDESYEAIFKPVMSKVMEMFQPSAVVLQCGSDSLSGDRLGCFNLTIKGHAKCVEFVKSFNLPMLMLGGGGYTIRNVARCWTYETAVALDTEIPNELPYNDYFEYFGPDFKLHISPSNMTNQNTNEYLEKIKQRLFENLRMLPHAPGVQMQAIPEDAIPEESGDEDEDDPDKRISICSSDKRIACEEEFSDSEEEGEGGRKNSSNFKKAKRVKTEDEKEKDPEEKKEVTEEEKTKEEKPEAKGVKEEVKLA

IC50 (HDAC-1) [µM]	IC50 (HDAC-3) [µM]	SMILES
0.0027	1.54	CC(C(=O)Nc1ccc(C(=O)Nc2cc(-c3ccc(F)cc3)ccc2N)cc1)N1CCCC1=O (centres unmarked) [Example 7, N-(2-Amino-5-(4-fluorophenyl)phenyl)-4-(2-(2-oxopyrrolidin-1-yl)propanamido)benzamide]
0.0028	1.35	CC(C(=O)Nc1ccc(C(=O)Nc2cc(-c3cccs3)ccc2N)cc1)N1CCOCC1 (centres unmarked) [Example 8, N-(2-Amino-5-(thiophen-2-yl)phenyl)-4-(2-morpholinopropanamido)benzamide]
0.0019	1.04	CC(C(=O)Nc1ccc(C(=O)Nc2cc(-c3cccs3)ccc2N)cc1F)N1CCCC1=O (centres unmarked) [Example 11, N-(2-Amino-5-(thiophen-2-yl)phenyl)-3-fluoro-4-(2-(2-oxopyrrolidin-1-yl)propanamido)benzamide]
0.0071	2.23	CC(C(=O)Nc1ccc(C(=O)Nc2cc(-c3ccc(Cl)s3)ccc2N)cc1)N1CCCC1=O (centres unmarked) [Example 12, N-(2-Amino-5-(5-chlorothiophen-2-yl)phenyl)-4-(2-(2-oxopyrrolidin-1-yl)propanamido)benzamide]

The remaining lines, values behind:

SMILES	IC50 (HDAC-1) [µM]	IC50 (HDAC-3) [µM]
CC(C(=O)Nc1ccc(C(=O)Nc2ccccc2N)cc1)N1CCCC1 (centres unmarked) [Example 1, N-(2-Amino-phenyl)-4-(2-pyrrolidin-1-yl-propionylamino)-benzamide]	0.201	–
CC(C(=O)Nc1ccc(C(=O)Nc2cc(-c3ccc(F)cc3)ccc2N)cc1)N1CCCC1 (centres unmarked) [Example 2, N-(2-Amino-5-(4-fluorophenyl)phenyl)-4-(2-(pyrrolidin-1-yl)propanamido)benzamide]	0.003	3.11
CC(C(=O)Nc1ccc(C(=O)Nc2cc(-c3cccs3)ccc2N)cc1)N1CCCC1 (centres unmarked) [Example 3, N-(2-Amino-5-(thiophen-2-yl)phenyl)-4-(2-(pyrrolidin-1-yl)propanamido)benzamide]	0.003	2.1
CC(C(=O)Nc1ccc(C(=O)Nc2ccccc2N)cc1)N1CCCC1=O (centres unmarked) [Example 4, N-(2-Aminophenyl)-4-(2-(2-oxopyrrolidin-1-yl)propanamido)benzamide]	0.0915	0.3
CC(C(=O)Nc1ccc(C(=O)Nc2cc(-c3cccs3)ccc2N)cc1)N1CCCC1=O (centres unmarked) [Example 5, N-(2-Amino-5-(thiophen-2-yl)phenyl)-4-(2-(2-oxopyrrolidin-1-yl)propanamido)benzamide]	0.0016	1.04
Nc1ccccc1NC(=O)c1ccc(NC(=O)C(c2ccccc2)N2CCOCC2)cc1 (centres unmarked) [Example 6, N-(2-aminophenyl)-4-(2-morpholino-2-phenylacetamido)benzamide]	0.0253	0.144
CC(C(=O)Nc1ccc(C(=O)Nc2cc(-c3ccc(F)cc3)ccc2N)cc1)N1CCOCC1 (centres unmarked) [Example 9]	0.0047	3.06
CC(C)(C(=O)Nc1ccc(C(=O)Nc2cc(-c3ccc(F)cc3)ccc2N)cc1)N1CCOCC1 [Example 10, N-(2-Amino-5-(4-fluorophenyl)phenyl)-4-(2-methyl-2-morpholinopropanamido)benzamide]	0.0041	3.63
